Read-outs that look alike come from different tables or passages of the source.

The record followed here is US10093630B2, “Pyrazole compounds and methods of making and using same” (ABIDE THERAPEUTICS, INC., priority 2014, dated 2018).

Common to all, as to assay: In vitro competitive activity-based protein profiling (gel-based, FP-Rh or HT-01 probe)
Type in all cases: biochemical

One assay has as its target T1, ABHD6 (Mus musculus, UniProt Q8R2Y0).
T1 construct: Proteomes (mouse brain membrane fraction or cell lysates); from tissue; host or cells: mouse brain membrane fraction (or cell lysates, not specified)
T1 sequence (Q8R2Y0 1-336): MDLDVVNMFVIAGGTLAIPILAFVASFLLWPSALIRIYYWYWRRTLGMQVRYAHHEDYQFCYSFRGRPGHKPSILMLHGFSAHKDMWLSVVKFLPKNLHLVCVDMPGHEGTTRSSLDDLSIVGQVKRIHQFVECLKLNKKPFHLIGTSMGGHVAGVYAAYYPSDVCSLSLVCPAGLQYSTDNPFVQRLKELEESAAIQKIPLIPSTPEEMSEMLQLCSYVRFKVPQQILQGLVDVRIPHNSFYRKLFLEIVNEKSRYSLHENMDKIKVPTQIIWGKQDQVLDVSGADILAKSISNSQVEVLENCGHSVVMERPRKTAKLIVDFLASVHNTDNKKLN
The settings on record: for inhibition at 1 µM: 1 μM inhibitor, read-out: % Inhibition at 1 μM, C = ABHD6; for inhibition at 10 µM: 10 μM inhibitor, read-out: % Inhibition at 10 μM, C = ABHD6; for IC50: mouse brain membrane fraction or cell lysates, 30 min preincubation at 37° C., read-out: Mouse (IC50 value, nM) ABHD6. In outline: (§1)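 Competitive labelling format in mouse brain membrane fractions or lysates at 1.0 mg/mL total protein: compounds preincubate 30 min at 37° C, activity probe FP-Rh or HT-01 then reacts 30 min at 37° C. Gel band fluorescence gives target activity.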

For a further assay, the target named is T2, FAAH (Mus musculus, UniProt O08914).
T2 construct: Proteomes (mouse brain membrane fraction or cell lysates); from tissue; host or cells: mouse brain membrane fraction (or cell lysates, not specified)
T2 sequence (O08914 1-579): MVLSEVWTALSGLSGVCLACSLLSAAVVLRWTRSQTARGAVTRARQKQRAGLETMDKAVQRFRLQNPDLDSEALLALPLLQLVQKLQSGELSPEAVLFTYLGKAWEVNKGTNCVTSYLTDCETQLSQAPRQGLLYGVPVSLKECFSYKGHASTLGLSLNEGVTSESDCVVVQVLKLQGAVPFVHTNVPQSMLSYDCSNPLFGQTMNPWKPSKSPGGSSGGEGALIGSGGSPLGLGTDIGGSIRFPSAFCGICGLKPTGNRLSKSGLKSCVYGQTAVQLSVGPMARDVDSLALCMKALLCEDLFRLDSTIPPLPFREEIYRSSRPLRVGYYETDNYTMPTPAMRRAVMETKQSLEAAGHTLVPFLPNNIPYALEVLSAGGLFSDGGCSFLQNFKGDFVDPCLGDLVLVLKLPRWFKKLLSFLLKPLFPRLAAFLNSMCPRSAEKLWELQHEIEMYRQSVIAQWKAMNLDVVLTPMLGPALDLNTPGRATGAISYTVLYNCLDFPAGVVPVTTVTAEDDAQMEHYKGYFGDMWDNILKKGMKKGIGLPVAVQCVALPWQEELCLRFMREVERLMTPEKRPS
As to conditions: for inhibition at 1 µM: 1 μM inhibitor, read-out: % Inhibition at 1 μM, B = FAAH; for inhibition at 10 µM: 10 μM inhibitor, read-out: % Inhibition at 10 μM, B = FAAH; for IC50: mouse brain membrane fraction or cell lysates, 30 min preincubation at 37° C., read-out: Mouse (IC50 value, nM) FAAH. In short, it runs like this:
as §1

The next assay deals with T3, MAGL (Mus musculus, UniProt O35678).
T3 construct: Proteomes (mouse brain membrane fraction or cell lysates); from tissue; host or cells: mouse brain membrane fraction (or cell lysates, not specified)
T3 sequence (O35678 1-303): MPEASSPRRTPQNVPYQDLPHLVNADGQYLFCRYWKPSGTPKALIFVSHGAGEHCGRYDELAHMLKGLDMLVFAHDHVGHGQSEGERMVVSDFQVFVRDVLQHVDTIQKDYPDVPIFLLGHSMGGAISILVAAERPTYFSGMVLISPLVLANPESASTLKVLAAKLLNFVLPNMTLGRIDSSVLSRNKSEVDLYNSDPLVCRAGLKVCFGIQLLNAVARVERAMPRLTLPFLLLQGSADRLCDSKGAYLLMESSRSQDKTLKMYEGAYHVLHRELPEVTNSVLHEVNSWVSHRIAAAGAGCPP
The settings on record: for inhibition at 1 µM: 1 μM inhibitor; for inhibition at 10 µM: 10 μM inhibitor; for IC50: mouse brain membrane fraction or cell lysates, 30 min preincubation at 37° C., read-out: Mouse (IC50 value, nM) MAGL. In outline:
as §1

In a further assay the target is T4, PLA2G7 (Mus musculus, UniProt Q60963).
T4 construct: Proteomes (mouse brain membrane fraction or cell lysates); from tissue; host or cells: mouse brain membrane fraction (or cell lysates, not specified)
T4 sequence (Q60963 22-440): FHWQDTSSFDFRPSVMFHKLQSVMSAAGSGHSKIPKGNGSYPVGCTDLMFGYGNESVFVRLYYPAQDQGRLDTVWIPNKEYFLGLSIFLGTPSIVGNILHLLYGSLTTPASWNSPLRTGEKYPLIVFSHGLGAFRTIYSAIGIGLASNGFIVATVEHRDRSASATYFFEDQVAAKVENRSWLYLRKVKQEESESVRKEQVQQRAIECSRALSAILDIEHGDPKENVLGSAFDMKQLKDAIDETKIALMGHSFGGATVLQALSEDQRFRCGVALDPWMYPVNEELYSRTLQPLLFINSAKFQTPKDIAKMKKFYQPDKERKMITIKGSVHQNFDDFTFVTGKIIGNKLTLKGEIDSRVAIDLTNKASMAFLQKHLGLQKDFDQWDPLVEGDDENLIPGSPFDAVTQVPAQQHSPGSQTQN
The settings on record: for inhibition at 1 µM: 1 μM inhibitor, read-out: % Inhibition at 1 μM, D = PLA2G7; for inhibition at 10 µM: 10 μM inhibitor, read-out: % Inhibition at 10 μM, D = PLA2G7. In outline: as §1

The inhibition is the change of the read-out against control, counted positive when it falls. By IC50 is commonly meant the concentration at which inhibition is half-maximal. For the compound `CCN(Cc1cccc(OC)c1)C(=O)n1cc(C#N)cn1` [Example 249, 4-Cyano-N-ethyl-N-(3-methoxybenzyl)-1H-pyrazole-1-carboxamide], the inhibition at 1 µM is less than 25% at ABHD6 (gel-based competitive ABPP), more than 75% on FAAH (gel-based competitive ABPP), more than 75% at MAGL (gel-based competitive ABPP) and less than 25% at PLA2G7 (gel-based competitive ABPP). Besides, the inhibition at 10 µM on ABHD6 (gel-based competitive ABPP) is more than 75%; on FAAH (gel-based competitive ABPP) it was more than 75%; on MAGL (gel-based competitive ABPP), more than 75%; at PLA2G7 (gel-based competitive ABPP), 25 to 75%. Moreover, the IC50 was more than 1000 nM on ABHD6, less than 100 nM at FAAH and 100 to 1000 nM on MAGL.

With `COc1ccccc1CN1CCN(C(=O)n2cc(C(F)(F)F)cn2)CC1` [Example 278, (4-(2-Methoxybenzyl)piperazin-1-yl)(4-(trifluoromethyl)-1H-pyrazol-1-yl)methanone], the inhibition at 1 µM on ABHD6 (gel-based competitive ABPP), on FAAH (gel-based competitive ABPP), at MAGL (gel-based competitive ABPP) and at PLA2G7 (gel-based competitive ABPP) was more than 75% throughout.

`O=C(N1CCN(Cc2ccccc2)CC1)n1cccn1` [Example 7, (4-Benzylpiperazin-1-yl)(1H-pyrazol-1-yl)methanone]: the inhibition at 1 µM was less than 25% at ABHD6, less than 25% on FAAH, more than 75% on MAGL and less than 25% on PLA2G7. Besides, the inhibition at 10 µM at ABHD6 is more than 75%; on FAAH, more than 75%; at MAGL it was more than 75%; on PLA2G7, less than 25%.

On to `CN(Cc1cccc(-c2ccncc2)c1)C(=O)n1cc(C(F)(F)F)cn1` [Example 222, N-methyl-N-(3-(pyridin-4-yl)benzyl)-4-(trifluoromethyl)-1H-pyrazole-1-carboxamide], for which the inhibition at 1 µM at ABHD6 is more than 75%; on FAAH, more than 75%; at MAGL it was more than 75%; at PLA2G7, 25 to 75%. For the same compound, the inhibition at 10 µM was more than 75% at ABHD6, more than 75% on FAAH, more than 75% on MAGL and less than 25% on PLA2G7.

As for `O=C(c1cnn(C(=O)N2CCN(Cc3ccc4c(c3)OCO4)CC2)c1)N1CCCCC1` [Example 69, (4-(Benzo[d][1,3]dioxol-5-ylmethyl)piperazin-1-yl)(4-(piperidine-1-carbonyl)-1H-pyrazol-1-yl)methanone], the inhibition at 1 µM is more than 75% on ABHD6, more than 75% at FAAH, 25 to 75% on MAGL and more than 75% at PLA2G7. The inhibition at 10 µM at ABHD6, on FAAH, at MAGL and on PLA2G7 was more than 75% throughout.

For `N#Cc1cnn(C(=O)Nc2ccc3ccccc3c2)c1` [Example 42, 4-Cyano-N-(naphthalen-2-yl)-1H-pyrazole-1-carboxamide], the inhibition at 1 µM on ABHD6, at FAAH, on MAGL and at PLA2G7 was less than 25% in each case. For the same compound, the inhibition at 10 µM at ABHD6 was less than 25%; at FAAH it was less than 25%; on MAGL, more than 75%; at PLA2G7 it was less than 25%.

As for `O=C(c1cnn(C(=O)N2CCN(Cc3ccc4c(c3)OCO4)CC2)c1)N1CCC1` [Example 86, Azetidin-1-yl(1-(4-(benzo[d][1,3]dioxol-5-ylmethyl)piperazine-1-carbonyl)-1H-pyrazol-4-yl)methanone], the inhibition at 1 µM is 25 to 75% on ABHD6, more than 75% at FAAH, less than 25% on MAGL and less than 25% on PLA2G7. Besides, the inhibition at 10 µM at ABHD6, on FAAH, at MAGL and at PLA2G7 was more than 75% each time.

With `Cc1cnn(C(=O)N2CCN(Cc3cccc(OCc4ccccc4)c3)CC2)c1` [Example 297, (4-(3-(Benzyloxy)benzyl)piperazin-1-yl)(4-methyl-1H-pyrazol-1-yl)methanone], the inhibition at 1 µM at ABHD6 (gel-based competitive ABPP) is more than 75%; at FAAH (gel-based competitive ABPP) it was more than 75%; at MAGL (gel-based competitive ABPP) it was more than 75%; on PLA2G7 (gel-based competitive ABPP) it was less than 25%.

Turning to `O=C(N1CCN(Cc2ccccc2Cl)CC1)n1cc(Cl)cn1` [Example 224, (4-Chloro-1H-pyrazol-1-yl)(4-(2-chlorobenzyl)piperazin-1-yl)methanone], the inhibition at 1 µM is more than 75% on ABHD6, more than 75% on FAAH, more than 75% on MAGL and less than 25% at PLA2G7. Moreover, the IC50 on ABHD6 was 100 to 1000 nM; on FAAH it was 100 to 1000 nM; at MAGL it was less than 100 nM; at PLA2G7 (mouse brain membrane fraction or cell lysates, 30 min preincubation at 37° C.), 100 to 1000 nM.

Regarding `N#Cc1cnn(C(=O)N2CCN(Cc3ccc(C(=O)N4CCC4)cc3Cl)CC2)c1` [Example 283, 1-(4-(4-(Azetidine-1-carbonyl)-2-chlorobenzyl)piperazine-1-carbonyl)-1H-pyrazole-4-carbonitrile], the inhibition at 1 µM on ABHD6 (gel-based competitive ABPP), on FAAH (gel-based competitive ABPP), on MAGL (gel-based competitive ABPP) and at PLA2G7 (gel-based competitive ABPP) was more than 75% throughout. Also, the inhibition at 10 µM on ABHD6 (gel-based competitive ABPP), on FAAH (gel-based competitive ABPP), at MAGL (gel-based competitive ABPP) and at PLA2G7 (gel-based competitive ABPP) was more than 75% each time.

Turning to `CN(CCN(C)C(=O)n1cc(Cl)cn1)C(=O)c1ccccc1` [Example 194, 4-Chloro-N-methyl-N-(2-(N-methylbenzamido)ethyl)-1H-pyrazole-1-carboxamide], the inhibition at 1 µM at ABHD6 is less than 25%; at FAAH, 25 to 75%; on MAGL it was less than 25%; on PLA2G7 it was less than 25%. In addition, the inhibition at 10 µM on ABHD6 is less than 25%; at FAAH, more than 75%; at MAGL, 25 to 75%; at PLA2G7, less than 25%.
